Measurements: patent publication US5976523A, “Method for healing compromised tissues using pyrimidine derivatives” (Mitsui Pharmaceuticals, Inc., priority 1995, dated 1999)
Where a name gives a salt, the structure may show the parent alone.

What was measured:
[1] = system: TMK1 cells; assay: TMK1 cell migration in Boyden's chamber; type: cell-based; conditions: 4 hours
Method: TMK1 cells, low-differentiating epithelial cells, were treated with trypsin. […] The culture medium in the lower well was then subjected to fixing and staining, and cells which had migrated therein were counted. Experiments were conducted concurrently in three chambers.
Each value will be presented as a mean ±S.D. and with respect to each compound, numbers of cells will be presented in the order of a) control, b) each pyrimidine compound (whose concentration will be specifically indicated), c) 10 ng/ml of EGF, and d) a mixed solution of each pyrimidine compound + EGF.

[2] = system: PDGF-A mRNAs; assay: Polysome distribution (translation) of PDGF-A mRNAs in rat SMCs; type: cell-based
Method: SMCs were prepared following the method proposed by Ross and Klebanoff in "J. Cell. […] A rat thoracic aorta was excised. After the tunica externa was peeled off, the tunica media and the tunica intima were minced into 2-3 mm^2. The minced sections were placed standstill in a 25-cm^2 flask which contained Waymouth's MB 752/1 medium containing 10% FBS and 80 ng/ml of gentamycin (product of Schering-Plough Corp.), followed by incubation at 37° C. for 2 to 3 weeks in the presence of 5% carbon dioxide gas (primary culture). The same volume of a trypsin-EDTA solution was added to the flask. After the sections were treated at 37° C. for 5 minutes to peel off cells, the cells were diluted with 10% FBS-Waymouth's MB 752/1 medium and then subcultured (second generation). Subculture was successively conducted likewise whenever the SMC became confluent. In the following experiments, the cells from the 5th generation to the 12th generation were employed. After reach in confluence of cells, the cultured SMCs were cultured for 2 days in a serum-free medium to avoid influence of serum. The SMCs were then added with thrombin (1.0 U/ml) or serotonin (5 μM), followed by incubation at 37° C. for 6 hours under which bring about induction of PDGF-A mRNAs at the maximum. To prevent dissociation of ribosomes and mRNAs, cycloheximide (100 μg/ml) was added 5 minutes before cells were collected. […] Biol. Chem.", 267, 508 ff, 1992 with slight modifications. The cells, which had been collected by the treatment with trypsin, were washed with PBS containing cycloheximide (100 μg/ml). A cell precipitate was then added with 500 μl of a high-salt lysis buffer (20 mM Tris-HCl pH 7.5, 250 mM NaCl, 5 mM MgCl2, 0.1% Noni det P-40, 0.2% DOC) for homogenization. The homogenate was centrifuged under 12,000×g at 4° C. for 10 minutes. The resulting supernatant was added with 67 μl of a heparine mix (7.4 mg/ml heparine, 1.1M NaCl, 15 mM DTT and RNasin). 200 μl of the extract were layered on 5 ml of 0.5-1.25M linear sucrose gradient (which contained 20 mM Tris-HCl pH 7.4, 10 mM NaCl, 3 mM MgCl2), followed by centrifugation under 45,000 rpm for 90 minutes in a "Hitachi […]". While monitoring the absorbance at 260 nm, ten (10) fractions were obtained. […] Subsequent to incubation at 37° C. for 1 hour, each fraction was extracted once with 1/2 volume of phenol, twice with 1/2 volume aliquots of chloroform, and once with the equal volume of chloroform, whereby proteins were removed. The water layer was added with glycogen (20 μg/ml) as a coprecipitant and then with 0.03M of sodium acetate, and RNAs were caused to precipitate with 2 volumes of ethanol. After RNAs were incubated at 65° C. for 5 minutes in a solution containing 60% of formamide, 5.9% of formaldehyde and the equal volume of MOPS buffer (10 mM MOPS pH 7.0, 4 mM NaOAc, 0.5 mM EDTA), electrophoresis was conducted across 1.2% agarose gels containing the equal volume of MOPS buffer so that RNAs were. isolated. After the gel was washed with 20 volumes of SSC, RNAs were blotted overnight to a Gene Screen Plus membrane by the capillary method. Fixing of the RNAs was conducted by exposing them for 1 minute at a distance of 10 cm from […]. Using a "QuickHyb Hybridization Solution" (product of Strategene Ltd.), hybridization was conducted following the instruction manual attached to the solution. Results of autoradiography were quantitated with reference to the NIH Image. […]

[3] = system: PDGF-A mRNAs; assay: Northern blot analysis of PDGF-A mRNA expression in cultured rat SMCs; type: cell-based; conditions: vs serum-free medium
Method: SMCs were prepared following the method proposed by Ross and Klebanoff in "J. Cell. Biol.", 50, 159 ff, 1971 with partial modifications. A rat thoracic aorta was excised. After the tunica externa was peeled off, the tunica media and the tunica intima were minced into 2-3 mm^2. The minced sections were placed standstill in a 25-cm^2 flask which contained Waymouth's MB 752/1 medium containing 10% FBS and 80 ng/ml of gentamycin (product of Schering-Plough Corp.), followed by incubation at 37° C. for 2 to 3 weeks in the presence of 5% carbon dioxide gas (primary culture). The same volume of a trypsin-EDTA solution was added to the flask. After the sections were treated at 37° C. for 5 minutes to peel off cells, the cells were diluted with 10% FBS-Waymouth's MB 752/1 medium and then subcultured (second generation). Subculture was successively conducted likewise whenever the SMC became confluent. In the following experiments, the cells from the 5th generation to the 12th generation were employed.
After reach in confluence of cells, the cultured SMCs were cultured for 2 days in a serum-free medium to avoid influence of serum. The SMCs were then added with thrombin (1.0 U/ml) or serotonin (5 μM), followed by incubation at 37° C. for 6 hours under which bring about induction of PDGF-A mRNAs at the maximum. To prevent dissociation of ribosomes and mRNAs, cycloheximide (100 μg/ml) was added 5 minutes before cells were collected.
Preparation of a polysome fraction and extraction of RNAs were conducted following the method proposed by Kasper, et al. in "J. Biol. Chem.", 267, 508 ff, 1992 with slight modifications. The cells, which had been collected by the treatment with trypsin, were washed with PBS containing cycloheximide (100 μg/ml). A cell precipitate was then added with 500 μl of a high-salt lysis buffer (20 mM Tris-HCl pH 7.5, 250 mM NaCl, 5 mM MgCl2, 0.1% Noni det P-40, 0.2% DOC) for homogenization. The homogenate was centrifuged under 12,000×g at 4° C. for 10 minutes. The resulting supernatant was added with 67 μl of a heparine mix (7.4 mg/ml heparine, 1.1M NaCl, 15 mM DTT and RNasin). 200 μl of the extract were layered on 5 ml of 0.5-1.25M linear sucrose gradient (which contained 20 mM Tris-HCl pH 7.4, 10 mM NaCl, 3 mM MgCl2), followed by centrifugation under 45,000 rpm for 90 minutes in a "Hitachi RP55ST". While monitoring the absorbance at 260 nm, ten (10) fractions were obtained. To prepare samples for the extraction of RNAs, the fractions were individually added with SDS and proteinase K to give final concentrations of 1% and 0.2 mg/ml, respectively. Subsequent to incubation at 37° C. for 1 hour, each fraction was extracted once with 1/2 volume of phenol, twice with 1/2 volume aliquots of chloroform, and once with the equal volume of chloroform, whereby proteins were removed. The water layer was added with glycogen (20 μg/ml) as a coprecipitant and then with 0.03M of sodium acetate, and RNAs were caused to precipitate with 2 volumes of ethanol.
After RNAs were incubated at 65° C. for 5 minutes in a solution containing 60% of formamide, 5.9% of formaldehyde and the equal volume of MOPS buffer (10 mM MOPS pH 7.0, 4 mM NaOAc, 0.5 mM EDTA), electrophoresis was conducted across 1.2% agarose gels containing the equal volume of MOPS buffer so that RNAs were. isolated. After the gel was washed with 20 volumes of SSC, RNAs were blotted overnight to a Gene Screen Plus membrane by the capillary method. Fixing of the RNAs was conducted by exposing them for 1 minute at a distance of 10 cm from a 15-W sterilamp. Using a "QuickHyb Hybridization Solution" (product of Strategene Ltd.), hybridization was conducted following the instruction manual attached to the solution. Results of autoradiography were quantitated with reference to the NIH Image. […]

[4] = system: primary cultured gastric mucosal cells; assay: Wound repair model with primary cultured gastric mucosal cells; type: cell-based, rabbit; conditions: for area of the wounded region (mean±S.D.): EGF alone 10 ng/ml
Method: Primary cultured gastric mucosal cells were prepared by mechanically peeling and mincing the gastric mucosa of a rabbit having a body weight of 2 kg and then digesting the minced gastric mucosa with 0.07% collagenase. The primary cultured gastric mucosal cells were cultured at a cell concentration of 3.3×10^5 cells/ml in F-12 culture medium containing 10% fetal calf serum added therein. For this cultivation, a culture dish (60 mm in diameter) coated with collagen type I was used. […] Using an anti-BrdU antibody, the cells in the S phase were stained to identify proliferated cells.
Their effects on the process of restoration were measured under the above-described parameters. […] In each of the control group and the medicament-added groups, the area of the wounded region was measured at the 0th hour, 12th hour, 24th hour, 36th hour and 48th hour. The measurement results will be given in this order.
The control group and the groups added with the medicament at the respective concentrations were each subjected to the experiment with n=5. The results will each be presented as a (mean±S. D.) mm2. A test of significance was conducted relative to the control group. * stands for p<0.05, ** for p<0.01, *** for p<0.001. A further test of significance was conducted relative to a group added with 10 ng/ml of EGF. + stands for p<0.05, and ++ for <0.01.

[5] = system: TMK1 cells; assay: Morphological change of TMK1 cells; type: cell-based; conditions: EGF alone 10 ng/ml, day 1

`CN1C(=O)Cc2cnc(N3CCCCC3)nc21` was tested, and the “numbers of cells counted (migrated), mean ±S.D.” value (from here on “numbers of cells counted”) ([1]; compound 0.1 mM + EGF 10 ng/ml) was 20.9±3.9 and the “numbers of cells counted” value ([1]; compound alone, 0.1 mM) was 2.9±1.0.

`CCC1CCN(c2ncc3c(n2)N(C)C(=O)C3)CC1` [2-(4-ethylpiperidino)-7-methyl-6-oxo-5,6-dihydro(7H)pyrro[2,3-d]pyrimidinemaleate] was tested, and the “numbers of cells counted” value ([1]; compound 0.1 mM + EGF 10 ng/ml) was 144±3.1 and the “numbers of cells counted” value ([1]; compound alone, 0.1 mM) was 28.6±18.4.

In the case of `CN1C(=O)C(C)(C)c2cnc(N3CCCCC3)nc21` [2-piperidino-5,5,7-trimethyl-6-oxo-5,6-dihydro(7H)pyrro[3,4-d]pyrimidine maleate], the “numbers of cells counted” value ([1]; compound 0.1 mM + EGF 10 ng/ml) is reported as 147.2±13.2 and the “numbers of cells counted” value ([1]; compound alone, 0.1 mM) is reported as 33±12.6.

In the case of `NCCc1c[nH]c2ccc(O)cc12` [serotonin, reference compound], the “translation state of the three kinds of PDGF-A mRNAs” value ([2]; serotonin alone) is reported as “all in translated forms” and the fold induction at 5 µM ([3]; Rattus norvegicus, 6 h, sole addition of serotonin (5 μM), read-out: expression amount of 1.7 kb PDGF-A mRNAs compared with control) is reported as 1.7.

With EGF: epidermal growth factor the “area of the wounded region (mean±S.D.)” value ([4]; 0th hour) was 2.06±0.06 mm2, the “area of the wounded region (mean±S.D.)” value ([4]; 12th hour) was 0.91±0.03 mm2 and the “area of the wounded region (mean±S.D.)” value ([4]; 24th hour) was 0.46±0.15 mm2. The “area of the wounded region (mean±S.D.)” value ([4]; 36th hour) was 0.08±0.04 mm2, the “area of the wounded region (mean±S.D.)” value ([4]; 48th hour) was 0 mm2 and the “effect on migration, proliferation and restoration of the cells” value ([4]; EGF alone 1-10 ng/ml) was “promoted migration and proliferation of the cells in a concentration-dependent manner and accelerated the speed of restoration”. For the same compound, the morphological changes [5] was “significant morphological changes were observed as early as day 1, presenting scattering”.

With thrombin the “translation state of 1.7 kb, 2.3 kb and 2.9 kb PDGF-A mRNAs” value ([2]; thrombin alone) was “both those in a translated form and those in the non-translated form” and the “expression amount of 1.7 kb PDGF-A mRNAs compared with control” value ([3]; sole addition of thrombin (1.0 U/ml)) was 1.5 times.
